{
  "source": "patent US20260226552A1",
  "about": "“MUC5AC IN PANCREATIC DUCTAL ADENOCARCINOMA” (Ohio State Innovation Foundation, priority 2023, published 2026)",
  "key": {"MUC5AC [1]": {"system": "MUC5AC", "test": "Immunohistochemistry of MUC5AC glycoforms (45M1, CLH2) in resected PDA tissue, H-score and extracellular detection", "format": "in vivo, human", "settings": "neoadjuvant therapy group by chemotherapy", "procedure": "Immunohistochemistry. […] The assay methodology development, optimization, and validation mirrors any new clinical immunohistochemical assay development in the laboratory. […] Briefly, the assay is performed on automated Stainer's (Leica Bond or Dako) in the laboratory. Appropriate positive (e.g., normal stomach) and negative tissue (e.g. normal pancreas) controls are used to optimize and validate the assay. The best pretreatment and antibody detection systems are determined using the manufacturer's antibody datasheet, and titration of at least three antibody dilutions are performed. If there is no recommendation from the manufacturer, the antibody is tested by trying the different lab pretreatment and detection system methods in order to determine the best method. Antibody dilutions may need to be optimized, depending on the results of initial testing. A pathologist reviews the slides from the validation run to determine the optimal methodology. Assessment of MUC5AC immunohistochemical staining. The immunohistochemical-labelled whole tumor section slides is reviewed by a pathologist with expertise in pancreaticobiliary pathology. The slides are reviewed for the expression patterns (Cytoplasmic vs Membranous) and scored for the extent (% of tumor stain) and intensity of staining (Negative 0, mild 1+, moderate 2+ and strong +3). A semiquantitative approach of H-score is assigned to tumor samples for statistical analysis. […] Tumor with scores <10 are considered as negative for expression. […] One hundred resected PDA specimens and serum samples were collected. 43 patients had neoadjuvant therapy (NAT), and 57 had upfront surgery (UpS). […] The presence or absence of extracellular (EC) expression was also studied. […] NR vs. […] Five of them were heavily treated with systemic therapy. […] Serum samples for the patients were collected at different time points of the management. This allowed for studying the relationship between serum MUC5AC with the known pancreatic cancer tumor marker CA 19-9 and MUC5AC's role in predicting treatment response. […] PR vs. […] The CA 19-9 levels followed the same trend (nCR vs. PR vs. NR=129 vs. 452 vs. 958, p>0.05). […] This can explain larger tumors in these groups. […] It should be noted that CA 19-9 levels were very high but not statistically significant in lower MUC5AC groups. One key takeaway from this is that PFS is not only driven by the pathological response in NAT group. Clinically, this may translate into guiding the physicians about the timing of surgery while on systemic therapy. […] OR vs. NR, 2.64 vs. 0.9, p=0.05). • There were 17 patients within 8 weeks of surgery, 9 within 5 weeks, and 8 from 5-8 weeks. The mean MUC5AC was lower than the ones noted in the pretreatment/presurgery population (1.2 ng/mL). […] The pathological response noted on the resected sample in NAT-group reported from the scale of 1-3 based on the treatment response. For practical purposes, patients with extensive tumors with no evident tumor regression or 3 were designated as the no-response (NR) group. Patients with residual tumors with evidence of regression or 2 and near complete response or single cells or small group of cancer cells or 1 were considered as partial-response (PR) or near complete-response (nCR), respectively."}, "[2]": {"system": "pancreatic cell lines (PCLs)", "test": "Chemosensitivity of pancreatic cell lines by MUC5AC expression level", "format": "cell-based", "text": "It was also shown that MUC5AC detected by CLH2 (immature) and 45M1 (mature) mabs are differently localized (Ho, J. J., et al., Secretion of MUC5AC mucin from pancreatic cancer cells in response to forskolin and VIP. Biochem Biophys Res Commun, 2002. 294(3): p. 680-6). NPC-1C-specific (immunogenic) MUC5AC has a distribution similar to mature MUC5AC. It can therefore be concluded that there are differences in chemosensitivities MUC5AC^negative MUC5AC^low to moderate and MUC5AC^high pancreatic cell lines (PCLs).\nThus, adding localization and other isoform data to the level of mature MUC5AC expression gives a better predictive signal in PDA patients."}, "MUC5AC [3]": {"system": "MUC5AC", "test": "Serum MUC5AC by ELISA kit in PDA patients", "format": "in vivo, human", "settings": "recurrent group, adjuvant therapy", "text": "One hundred resected PDA specimens and serum samples were collected. 43 patients had neoadjuvant therapy (NAT), and 57 had upfront surgery (UpS). The cellular expression of MUC5AC was studied in the resected formalin-fixed paraffin-embedded tissue through immunohistochemistry using 45M1 and CLH2 antibodies. The expression levels in the tissue were estimated using H-score intensity (0-3)X % of tumor cells with expression with results ranging from 0-300. The presence or absence of extracellular (EC) expression was also studied. Below is a summary of some significant findings. • CLH2-MUC5AC was identified in the perinuclear region or cytoplasm, while 45M1-MUC5AC was identified in apical and EC regions. […] Human serum MUC5AC levels were analyzed using the Human MUC5AC ELISA Kit (Catalog number NBP2-76703, Novus Biologicals, Centennial, CO). 45M1 and CLH2 could not be detected in the serum samples, but the commercially available kits allowed detection and measuring of MUC5AC. […]\nThere was an analysis of patients with serum MUC5AC levels available post-NAT […] to understand if serum MuC5AC levels help predict treatment response. […] The correlation between tissue (45M1 and CLH2) and serum MUC5AC levels was analyzed as the former correlated with treatment response in NAT-group."}, "[4]": {"settings": "compared with MUC5AC low to moderate PCLs"}, "[5]": {"settings": "compared with MUC5AC negative PCLs"}},
  "note": "Marks after values point to notes of the source that are not given here.",
  "data": [
    {"smiles": "O=c1[nH]cc(F)c(=O)[nH]1", "note": "[5FU, fluorouracil]", "values": [
      {"measurement": "45M1 H-score mean", "setting": "MUC5AC [1]", "value": 130},
      {"measurement": "45M1 H-score median (range)", "setting": "MUC5AC [1]", "value": "105 (0-270)"},
      {"measurement": "45M1 detection rate", "setting": "MUC5AC [1]", "value": 89, "unit": "%"},
      {"measurement": "CLH2 H-score mean", "setting": "MUC5AC [1]", "value": 126},
      {"measurement": "CLH2 H-score median (range)", "setting": "MUC5AC [1]", "value": "95 (0-270)"},
      {"measurement": "CLH2 detection rate", "setting": "MUC5AC [1]", "value": 89, "unit": "%"},
      {"measurement": "EC-45M1 detection rate", "setting": "MUC5AC [1]", "value": 58, "unit": "%"},
      {"measurement": "chemosensitivity of MUC5AC high PCLs", "setting": "[2]; [4]", "value": "more sensitive"},
      {"measurement": "chemosensitivity of MUC5AC high PCLs", "setting": "[2]; [5]", "value": "more sensitive"}
    ]},
    {"smiles": "N.N.[Cl][Pt][Cl]", "note": "[Cisplatin, cisplatin]", "values": [
      {"measurement": "chemosensitivity of MUC5AC high PCLs", "setting": "[2]; [4]", "value": "more sensitive"},
      {"measurement": "chemosensitivity of MUC5AC high PCLs", "setting": "[2]; [5]", "value": "more sensitive"}
    ]},
    {"smiles": "Nc1ccn([C@@H]2O[C@H](CO)[C@@H](O)C2(F)F)c(=O)n1", "note": "[Gem, gemcitabine]", "values": [
      {"measurement": "45M1 H-score mean", "setting": "MUC5AC [1]", "value": 116},
      {"measurement": "45M1 H-score median (range)", "setting": "MUC5AC [1]", "value": "150 (10-210)"},
      {"measurement": "45M1 detection rate", "setting": "MUC5AC [1]", "value": 100, "unit": "%"},
      {"measurement": "CLH2 H-score mean", "setting": "MUC5AC [1]", "value": "150)/90"},
      {"measurement": "CLH2 H-score median (range)", "setting": "MUC5AC [1]", "value": 120},
      {"measurement": "CLH2 detection rate", "setting": "MUC5AC [1]", "value": 100, "unit": "%"},
      {"measurement": "EC-45M1 detection rate", "setting": "MUC5AC [1]", "value": 60, "unit": "%"},
      {"measurement": "Serum MUC5AC", "setting": "MUC5AC [3]; after chemotherapy", "value": "5.3* ng/mL"},
      {"measurement": "Serum MUC5AC", "setting": "MUC5AC [3]; before chemotherapy", "value": 1.1, "unit": "ng/mL"},
      {"measurement": "chemosensitivity of MUC5AC high PCLs", "setting": "[2]; [4]", "value": "resistant"},
      {"measurement": "chemosensitivity of MUC5AC high PCLs", "setting": "[2]; [5]", "value": "resistant"}
    ]},
    {"smiles": "CCc1c2c(nc3ccc(OC(=O)N4CCC(N5CCCCC5)CC4)cc13)-c1cc3c(c(=O)n1C2)COC(=O)[C@]3(O)CC", "note": "[Irinotecan, irinotecan]", "values": [
      {"measurement": "chemosensitivity of MUC5AC high PCLs", "setting": "[2]; [5]", "value": "more sensitive"}
    ]},
    {"smiles": "O=C1[O][Pt]2([NH][C@@H]3CCCC[C@H]3[NH]2)[O]C1=O", "note": "[Oxaliplatin, oxaliplatin]", "values": [
      {"measurement": "chemosensitivity of MUC5AC high PCLs", "setting": "[2]; [4]", "value": "more sensitive"},
      {"measurement": "chemosensitivity of MUC5AC high PCLs", "setting": "[2]; [5]", "value": "resistant"}
    ]}
  ]
}
